Laboratory results taken from ChEMBL document CHEMBL4342426, “Structure-activity relationship of 4-azaindole-2-piperidine derivatives as agents against Trypanosoma cruzi” (Bioorg Med Chem Lett, 2020).

How the values were obtained:
[1] = cells; conditions: Homo sapiens, MRC-5 SV2, 72 h
Description: (§1) Cytotoxicity against human MRC5 SV2 cells assessed as reduction in cell viability incubated for 3 days by fluorimetry

[2] = tested on: Macrophage; assay: cells; conditions: Mus musculus, 72 h
Description: (§2) Cytotoxicity against mouse peritoneal Macrophage cells assessed as reduction in cell viability incubated for 3 days by fluorimetry

[3] = in vitro; conditions: human, MRC5 SV2 cells
Description: as §1

[4] = in vitro; conditions: human, liver microsomes
Description: Metabolic stability in human liver microsomes assessed as intrinsic clearance at 0.5 uM incubated for 30 mins by LC-MS/MS analysis

[5] = in vitro; conditions: mouse, liver microsomes
Description: Metabolic stability in mouse liver microsomes assessed as intrinsic clearance at 0.5 uM incubated for 30 mins by LC-MS/MS analysis

[6] = physchem; conditions: buffer, pH 7.4
Description: Lipophilicity, logD of compound at pH 7.4 by HPLC analysis

[7] = in vitro; conditions: mouse, peritoneal macrophages
Description: as §2

[8] = in vitro; conditions: PAMPA
Description: Effective permeability of compound by PAMPA assay

[9] = tested on: Trypanosoma cruzi; assay: microbe, parasite or virus in culture; conditions: Tulahuen CL2, MRC-5 SV2, 168 h
Description: Antitrypanosomal activity against Trypanosoma cruzi Tulahuen CL2 amastigotes infected in human MRC5 SV2 cells incubated for 7 days by chlorophenol red beta-D-galactopyranoside substrate based spectrophotometric assay

[10] = tested on: Trypanosoma brucei; assay: microbe, parasite or virus in culture; conditions: Squib 427, 72 h
Description: Antitrypanosomal activity against Trypanosoma brucei Squib 427 assessed as reduction in parasite growth incubated for 72 hrs by resazurin dye based fluorimetric analysis

[11] = tested on: Trypanosoma brucei rhodesiense; assay: microbe, parasite or virus in culture; conditions: STIB900, 72 h
Description: Antiprotozoal activity against Trypanosoma brucei rhodesiense STIB900 trypomastigotes incubated for 72 hrs by resazurin dye based fluorimetric analysis

[12] = tested on: Leishmania infantum; assay: microbe, parasite or virus in culture; conditions: for IC50: MHOM/MA(BE)/67/ITMAP263, 120 h; for IC90: MHOM/MA(BE)/67/ITMAP263, in Mus musculus, 120 h
Description: Antileishmanial activity against amastigote stage of Leishmania infantum MHOM/MA(BE)/67/ITMAP263 infected in mouse peritoneal macrophage assessed as parasite growth inhibition incubated for 5 days by Giemsa staining based assay

Row | Compound | IC50 [1] | IC50 [2] | IC90 at 72 h [3] | CLint scaled at 0.5 h, 0.5 µM [4] | microsomal CLint at 0.5 h, 0.5 µM [4] | CLint scaled at 0.5 h, 0.5 µM [5] | microsomal CLint at 0.5 h, 0.5 µM [5] | logD [6] | IC90 at 72 h [7] | Papp [8] | IC50 [9] | IC90 [9] | IC50 [10] | IC90 [10] | IC50 [11] | IC90 [11] | IC50 [12] | IC90 [12] | CC50 at 72 h [3]
1 | O=C(c1ccccc1)N1CC=C(c2cc3ccccc3[nH]2)CC1 | 64 µM | 64 µM | 64 µM | 201 mL/min/kg | 61.9 µL/min/mg | 13200 mL/min/kg | 1370 µL/min/mg | 4.15 | 64 µM | 4.86 ×10⁻⁶ cm/s | 41.9 µM | 64 µM | 64 µM | 64 µM | 64 µM | 64 µM | 64 µM | 64 µM | –
2 | CC(=O)O[C@H]1C(=O)[C@@]2(C)[C@H]([C@H](OC(=O)c3ccccc3)[C@]3(O)C[C@H](OC(=O)[C@H](O)[C@@H](NC(=O)c4ccccc4)c4ccccc4)C(C)=C1C3(C)C)[C@]1(OC(C)=O)CO[C@@H]1C[C@@H]2O [PACLITAXEL] | – | – | – | – | – | – | – | – | – | – | – | – | – | – | – | – | – | – | < 0.01 µM
3 | O=C(c1ccccn1)N1CCCC(c2cc3ncccc3[nH]2)C1 (stereo not drawn) | 64 µM | 64 µM | 64 µM | < 25 mL/min/kg | < 23 µL/min/mg | 523 mL/min/kg | 164 µL/min/mg | 1.85 | 64 µM | 2.33 ×10⁻⁶ cm/s | 64 µM | 64 µM | 64 µM | 64 µM | 64 µM | 64 µM | 64 µM | 64 µM | –
4 | O=S(=O)(c1ccccc1)N1CC=C(c2cc3ncccc3[nH]2)CC1 | 64 µM | 45.3 µM | 64 µM | – | – | – | – | – | 59.7 µM | – | 64 µM | 64 µM | 64 µM | 64 µM | 64 µM | 64 µM | 45.6 µM | 60.5 µM | –
5 | O=C(NCCc1nc2ccccc2[nH]1)c1ccccc1 | 64 µM | 64 µM | 64 µM | – | – | – | – | – | 64 µM | – | 64 µM | 64 µM | 64 µM | 64 µM | 64 µM | 64 µM | 64 µM | 64 µM | –
6 | O=C(Cn1ccnc1[N+](=O)[O-])NCc1ccccc1 [BENZNIDAZOLE] | – | – | – | – | – | – | – | – | – | – | 2 to 5 µM | – | – | – | – | – | – | – | –
7 | CN(CC(O)c1cc2ncccc2n1S(=O)(=O)c1ccccc1)C(=O)c1ccccc1 (stereo not drawn) | 64 µM | 11.3 µM | 64 µM | 223 mL/min/kg | 160 µL/min/mg | 2050 mL/min/kg | 498 µL/min/mg | 3.31 | 14.9 µM | 15.7 ×10⁻⁶ cm/s | 64 µM | 64 µM | 64 µM | 64 µM | 59.4 µM | 64 µM | 11.4 µM | 15.1 µM | –
8 | O=C(NCCc1nc2ncc(Cl)cc2[nH]1)c1ccccc1 | 64 µM | 64 µM | 64 µM | < 31.7 mL/min/kg | < 23 µL/min/mg | < 95 mL/min/kg | < 23 µL/min/mg | 2.49 | 64 µM | 8.77 ×10⁻⁶ cm/s | 64 µM | 64 µM | 64 µM | 64 µM | 64 µM | 64 µM | 64 µM | 64 µM | –
9 | CC[C@]1(O)C[C@@H]2CN(CCc3c([nH]c4ccccc34)[C@@](C(=O)OC)(c3cc4c(cc3OC)N(C)[C@H]3[C@@](O)(C(=O)OC)[C@H](OC(C)=O)[C@]5(CC)C=CCN6CC[C@]43[C@@H]65)C2)C1 [VINBLASTINE] | – | – | – | – | – | – | – | – | – | – | – | – | – | – | – | – | – | – | < 0.01 µM
10 | CC(C)(C)OC(=O)N1CCCC(O)(c2cc3ncccc3[nH]2)C1 (stereo not drawn) | 64 µM | 64 µM | 64 µM | – | – | – | – | – | 64 µM | – | 64 µM | 64 µM | 64 µM | 64 µM | 64 µM | 64 µM | 64 µM | 64 µM | –
11 | O=C(CCc1nc2ncc(Cl)cc2[nH]1)Nc1ccccc1 | 64 µM | 64 µM | 64 µM | < 33.3 mL/min/kg | < 23 µL/min/mg | 516 mL/min/kg | 120 µL/min/mg | 2.81 | 64 µM | 5.97 ×10⁻⁶ cm/s | 64 µM | 64 µM | 64 µM | 64 µM | 64 µM | 64 µM | 64 µM | 64 µM | –
12 | O=C(CCc1nc2ncc(Cl)cc2[nH]1)Nc1cccc(F)c1 | 64 µM | 64 µM | 64 µM | ≥ 25 mL/min/kg | < 23 µL/min/mg | > 963 mL/min/kg | 301 µL/min/mg | 3.24 | 64 µM | 6.13 ×10⁻⁶ cm/s | 64 µM | 64 µM | 64 µM | 64 µM | 64 µM | 64 µM | 64 µM | 64 µM | –
13 | O=C(c1ccccc1)N1CCC(O)(c2cc3ncccc3[nH]2)CC1 | 64 µM | 64 µM | 64 µM | 52 mL/min/kg | 31 µL/min/mg | 956 mL/min/kg | 193 µL/min/mg | 2.13 | 64 µM | – | 64 µM | 64 µM | 64 µM | 64 µM | 64 µM | 64 µM | 64 µM | 64 µM | –
14 | O=C(CCc1nc2ncccc2[nH]1)Nc1ccccc1 | 64 µM | 64 µM | 64 µM | – | – | – | – | 1.75 | 64 µM | 2.72 ×10⁻⁶ cm/s | 64 µM | 64 µM | 64 µM | 64 µM | 64 µM | 64 µM | 64 µM | 64 µM | –
15 | N#Cc1cnc2cc(C3CCCN(C(=O)c4cc(C(F)(F)F)no4)C3)[nH]c2c1 (stereo not drawn) | 64 µM | 45.3 µM | 64 µM | 50.5 to 54.2 mL/min/kg | 32.9 µL/min/mg | 310 to 555 mL/min/kg | 68.3 to 114 µL/min/mg | 3.5 | 59.7 µM | 5.51 ×10⁻⁶ cm/s | 64 µM | 64 µM | 64 µM | 64 µM | 64 µM | 64 µM | 39.2 µM | 59 µM | –
16 | O=C(c1cncnc1)N1CCCC(c2cc3ncccc3[nH]2)C1 (stereo not drawn) | 64 µM | 64 µM | 64 µM | < 31.3 mL/min/kg | < 23 µL/min/mg | – | – | 1.24 | 64 µM | – | 64 µM | 64 µM | 64 µM | 64 µM | 64 µM | 64 µM | 64 µM | 64 µM | –
17 | OC1(c2cc3ncccc3[nH]2)CCN(Cc2ccccc2)CC1 | 64 µM | 64 µM | 64 µM | 143 mL/min/kg | 94.4 µL/min/mg | 1920 mL/min/kg | 434 µL/min/mg | 2.13 | 64 µM | – | 64 µM | 64 µM | 64 µM | 64 µM | 64 µM | 64 µM | 64 µM | 64 µM | –
18 | CC(C)c1cc(C(=O)N2CCC(O)(c3cc4ncccc4[nH]3)CC2)on1 | 64 µM | 64 µM | 64 µM | 40.7 mL/min/kg | 24.1 µL/min/mg | 4900 mL/min/kg | 980 µL/min/mg | 2.46 | 64 µM | – | 45.9 µM | 64 µM | 64 µM | 64 µM | 64 µM | 64 µM | 64 µM | 64 µM | –
19 | CCCC(=O)N1CCCC(O)(c2cc3ncccc3[nH]2)C1 (stereo not drawn) | 64 µM | 64 µM | 64 µM | – | – | – | – | – | 64 µM | – | 64 µM | 64 µM | 64 µM | 64 µM | 64 µM | 64 µM | 64 µM | 64 µM | –
20 | CCN(CCc1nc2ncccc2[nH]1)C(=O)c1ccccc1 | 64 µM | 64 µM | 64 µM | – | – | – | – | 1.63 | 64 µM | 3.35 to 3.44 ×10⁻⁶ cm/s | 64 µM | 64 µM | 64 µM | 64 µM | 64 µM | 64 µM | 64 µM | 64 µM | –
21 | CC(=O)N1C=C(c2cc3ncccc3[nH]2)CCC1 | 64 µM | 64 µM | 64 µM | – | – | – | – | – | 64 µM | – | 64 µM | 64 µM | 64 µM | 64 µM | 64 µM | 64 µM | 64 µM | 64 µM | –
